Entries after “also recorded” stand apart in the source; their conditions may differ. Marks after values point to notes of the source that are not given here.

Series [1] relates to Rec-1 cells. The series can be described thus: Rec-1 growth inhibition (ATPlite), combination index with bendamustine. The class given is cell-based, human. Particulars: crosslinked CAS024 combined with bendamustine; 96 hr. The method, then: (§1) The final volume in each well was 150 μL.
The test system of series [2] is DOHH2 human tumor xenograft. The series can be described thus: Dose response in established subcutaneous DOHH2 xenograft model in SCID mice. Particulars: days 0, 4, 8.
Description: The objective of this experiment was to examine the dose response to treatment with CAS-024 in a model of established subcutaneous human tumor (DOHH2) xenograft model in SCID mice.
On day 8 post-tumor inoculation, palpable tumors were apparent in a majority of mice. The tumor-bearing mice were sorted into four groups with equivalent mean tumor volumes (n=14 per group; 2 cages of 5 mice and 1 cage of 4 mice for each group). The day of the sort was defined as day 0. Tumor diameters were determined with a pair of calipers and tumor volumes were calculated using the formula: V=½[length×(width)^2].
Tumor-bearing groups of SCID mice were treated on days 0, 4, and 8 via IP injection of 0.2 mL of PBS containing 200 μg of huIgG (negative control) or 200, 100, 30, 10, or 3 μg of CAS-024. The two lowest dose solutions of CAS-024 were prepared on the day of injection to avoid the need to add a carrier protein to the most dilute solutions.
Dose solutions were prepared in similar volumes and the contents of the tubes were noted on removable labels. An investigator who was not treating or assessing the mice placed a color code on each tube and noted the code and identity of the tube contents in a laboratory notebook. Mice were monitored daily by visual inspection. Weights were determined weekly, and tumor diameters were determined at least 3 times per week (M, W, F) by an observer blinded (see above) to the treatment groups. Tumor volumes were calculated as described above. Mice were euthanized if their tumor volume reached more than 1500 mm^3 (or 1200 mm^3 on Fridays). Death was not an endpoint in the tumor protocols and, unless noted otherwise, “survival” of a mouse was determined by the time it was euthanized due to its tumor volume reaching the predetermined limits.
All statistical analyses were performed using GraphPad Prism software. Significant differences in mean tumor volumes and mean relative tumor volumes were determined using a one-way ANOVA for nonparametric data (Kruskal-Wallis test) with Dunn's multiple comparison post test. To examine differences between each of the CAS-024 treated groups and the huIgG group, all groups were compared. For comparisons between the CAS-024 groups only, the huIgG group was excluded. In addition, the high and middle dose (200, 100, and 30 μg) groups were analyzed as a one data set, and the middle and low dose (30, 10, and 3 μg) groups were analyzed as another data set. Significant differences in survival of mice over time were determined using Kaplan-Meier survival analysis with a log-rank test for comparing survival curves. Significant differences in the incidence of tumor-free mice were determined using Fisher's exact test. p values<0.05 were considered significant.
Series [3] concerns DOHH2 human tumor xenograft. Put plainly: CAS024 combined with bendamustine in subcutaneous DOHH2 xenografts in SCID mice. It is filed as in vivo. Particulars: CAS024 10 μg IV days 0, 4, 8; Bendamustine 10 mg/kg IP days 0, 2, 4, 7, 9. The protocol: Establishment of tumor xenografts and sorting into treatment groups.
Monitoring and endpoints. Mice were monitored daily by visual inspection. […] Tumor volumes were calculated as described above.

Series [4] deals with Rec-1 cells. Put plainly: Rec-1 growth inhibition (ATP viable cell detection), combination index with chemotherapeutic agents. It is filed as cell-based, human. Particulars: 96 hours.
Description: Rec-1 cells, a CD37+ human B cell line established from a patient with mantle cell lymphoma, were tested for growth inhibition in response to crosslinked CAS-024 in the presence or absence of doxorubicin, vincristine, or fludarabine (see FIG. 7). CAS-024 was preincubated with anti-human IgG F(ab)′2 to crosslink the protein. Cells were cultured with medium alone or with medium containing various concentrations of the crosslinked CAS-024 protein, in the presence or absence of various concentrations of doxorubicin, vincristine, or fludarabine. Cultures were incubated for 96 hours and growth inhibition was assessed using an ATP viable cell detection system (i.e., viable cells quantified by ATP release).
A numerical value, assigned to each drug combination at predefined dose levels, enabled quantitative drug/drug interaction comparisons between different drug combinations. Results were expressed as combination indices (CI) vs. effect level, in which effect level represented percent inhibition of cell growth. The mean CI±SEM for each effect level was averaged over three experiments. A CI<1.0 was considered synergy, CI=1.0 additivity, and CI>1.0 antagonism.
Series [5] relates to DOHH2 human tumor xenograft. The series can be described thus: CAS-024 and Rituxan as single agents in established DOHH2 xenograft model in SCID mice. The class given is in vivo. Particulars: for Death (other than for Tumor Size Sacrifice) / Median Survival Time: 200 μg IP days 0, 4, 8; for Median Survival Time: cumulative 600 μg; for mean tumor volume compared with human IgG treated group: 200 μg IP, day 4 through day 11. The protocol:
The objective of this study was to examine the efficacy of CAS-024 and RITUXAN® (rituximab) as single agents in a model of established human tumor (DOHH2) xenografts in SCID mice.
Mice were monitored daily by visual inspection. […] Tumor volumes were calculated as described above. Tumor volumes on the last day that all mice were alive in each group were also expressed in terms of tumor volumes relative to day 0, using the formula: […]

Series [6] concerns the target T1, CD37 (Homo sapiens, UniProt P11049).
T1 sequence (P11049 1-281): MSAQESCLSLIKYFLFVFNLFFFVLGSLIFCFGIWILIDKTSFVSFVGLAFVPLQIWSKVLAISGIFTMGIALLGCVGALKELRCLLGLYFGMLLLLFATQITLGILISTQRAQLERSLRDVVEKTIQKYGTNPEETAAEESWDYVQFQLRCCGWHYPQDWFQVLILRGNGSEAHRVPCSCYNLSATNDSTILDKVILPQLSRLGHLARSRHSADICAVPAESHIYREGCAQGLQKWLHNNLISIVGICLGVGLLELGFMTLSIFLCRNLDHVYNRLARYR
Put plainly: FMAT competition binding assay against labeled CAS-006 on Ramos cells. Details: CD-37 found on Ramos cells (a B-lymphoblastoid cell line derived from a Burkitt lymphoma); endogenous in cells; host or cells: Ramos cells. The source says: A competition assay was used to compare the binding affinity of different anti-CD37 specific small modular immunopharmaceutical (SMIP) molecules to CD-37 found on Ramos cells (a B-lymphoblastoid cell line derived from a Burkitt lymphoma). An SEC purified chimeric anti-CD37 SMIP molecule (CAS-006, SEQ ID NO:247) was labeled with the FMAT Blue® fluorescence dye (Applied Biosystems) and used as the standard to compete with purified unlabeled chimeric anti-CD37 SMIP molecule (positive control) and purified unlabeled humanized anti-CD37 SMIP test molecules. […] The plates were incubated at room temperature for 30 min and read on an 8200 Cellular Detection System (Applied Biosystems) gated for middle cell size and low signal.
A competition assay as described in Example 4 was used to compare the binding affinity of different mouse-human hybrid anti-CD37 SMIP molecules compared to CAS-024 binding to Ramos cells. An SEC purified chimeric anti-CD37 SMIP molecule (CAS-006, SEQ ID NO:247) was labeled with the FMAT Blue® fluorescence dye (Applied Biosystems) and used as the standard to compete with purified unlabeled chimeric anti-CD37 SMIP molecule (CAS-006, positive control) and purified unlabeled humanized anti-CD37 SMIP test molecules—-CAS-002 (SEQ ID NO:48), CAS-003 (SEQ ID NO:52), CAS-014 (SEQ ID NO:251), CAS-017 (SEQ ID NO:252), and CAS-024 (SEQ ID NO:253).

A further series concerns SU-DHL-6 cells. Put plainly: SU-DHL-6 growth inhibition (ATPlite), combination index. The class given is cell-based, human. The protocol: as §1
Series [7] has as its system chronic lymphocytic leukemia (CLL) cells. Particulars: in vitro; cited from earlier work.
In series [8] the target is T1, CD37. Put plainly: FACS competitive binding / cross blocking of FITC-conjugated anti-CD37 on BJAB cells. Particulars: FIGS. 5A-5E. The method, then: FITC labeled antibody conjugates were titrated from 10 ng/mL to 10 μg/mL in an initial binding study to determine the optimal amount to use in the blocking studies. The level chosen was just below saturating amounts, and was kept constant in the subsequent assays, while levels of blocking antibody were increased over a 10-fold range. Data were plotted as percent of maximal binding versus concentration of blocking antibody, so that higher levels indicate less efficient blocking, while lower levels indicate more efficient blocking activity.
For competitive binding assays, 2.5×10^5 BJAB cells were incubated in 96-well V-bottom plates in staining media (PBS with 2% mouse sera) with the FITC-conjugated anti-CD37 mAbs at 1.25 μg/mL in the presence of unconjugated anti-CD37 MAb at the indicated concentrations (2.5, 1.25, 0.6, or 0.3 μg/ml) or staining media for 45 minutes on ice in the dark. Blocking antibodies and FITC labeled antibody conjugates were added to reactions prior to addition of cells. The cells were then washed […] with PBS and fixed with 1% paraformaldehyde (USB, Cleveland, Ohio). The treated cells were analyzed by flow cytometry using a FACsCalibur instrument and CellQuest software (BD Biosciences, San Jose, Calif.). […]

Turning to “G28-1 VH (M99F, Y102S)—VL (T25A) scFv (SSC-P) H WCH2 WCH3 [CAS-024]”, in the series with Rec-1 cells [1], the “combination effect on target cell growth (CI)” value was “synergistic inhibitory effects”. The “Death (Not Due to Large Tumor Volume)” value in series [2] (3 μg per IP injection) was 0/14; in series [2] (10 μg per IP injection), 0/14; in series [2] (30 μg per IP injection) it was 0/14; in series [2] (100 μg per IP injection), 1/14^h; in series [2] (200 μg per IP injection), 0/14. For the same compound, the “Median Survival Time” value is 19 days in series [2] (3 μg per IP injection, cumulative 9 μg); 28 days in series [2] (10 μg per IP injection, cumulative 30 μg); 35 days in [2] (30 μg per IP injection, cumulative 90 μg); “Undefined” in series [2] (100 μg per IP injection, cumulative 300 μg); “Undefined^ef” in series [2] (200 μg per IP injection, cumulative 600 μg); 17^b Days in [3]. Further, the “Median Survival Time” value in [5] is recorded as “Undefined^d,e”. Also, the “effect on the growth of DOHH2 tumors” value in [2] (3 to 200 μg per IP injection) is reported as “dose-dependent inhibitory effect”. Further, the “clinical signs of toxicity” value in series [3] is listed as “No clinical signs of toxicity”. Besides, the results for the “combination index (CI)” value in the series with Rec-1 cells [4] (crosslinked CAS-024 combined with doxorubicin), in the series on Rec-1 cells [4] (crosslinked CAS-024 combined with fludarabine) and in the series on Rec-1 cells [4] (crosslinked CAS-024 combined with vincristine) were “additive”, less than 1.0 and less than 1.0, respectively. For the same compound, in series [5], the “Death (other than for Tumor Size Sacrifice)” value is on record as 1/15^f. Moreover, the “mean tumor volume compared with human IgG treated group” value in series [5] is “significantly lower than that of the human IgG treated group”. Also, at CD37 [6] (FIG. 3), the “greater affinity for CD37 than humanized VLVH anti-CD37 SMIP molecules with 16 amino acid linker” value is on record as not above 4 fold. The “binding affinity for CD37 compared with parent CAS-006” value at CD37 [6] (competition with FMAT Blue labeled CAS-006) is “substantially the same affinity; also recorded: same binding affinity as CAS-006”. The “combination effect on cell growth (CI)” value with SU-DHL-6 cells (CAS-024 combined with chlorambucil) is on record as “did not result in synergistic inhibitory effects”; in the series on SU-DHL-6 cells (crosslinked CAS024 combined with bendamustine, 96 hr), “synergistically inhibited”.
Consider “CAS-006: chimeric anti-CD37 SMIP protein (mVLmVH) with variable regions of mouse mAb G28-1, SEQ ID NO:247”, for which, in series [7], the “combination effect with fludarabine on killing of CLL cells” value is listed as “acts synergistically”. In addition, in the series with CD37 [8], the “blocking activity (inhibition of binding of FITC-conjugated anti-CD37)” value is “highest level of blocking activity”.
On to “rituximab [Rituxan ®, reference compound]”, for which, in series [5], the “Death (other than for Tumor Size Sacrifice)” value is 0/15, the “Median Survival Time” value is 43 days and the “mean tumor volume compared with human IgG treated group” value is listed as “significantly lower than that of the human IgG treated group”.
For the compound `Cn1c(CCCC(=O)O)nc2cc(N(CCCl)CCCl)ccc21` [Bendamustine, 4-[5-[Bis(2-chloroethyl)amino]-1-methylbenzimidazol-2-yl]butanoic acid, reference compound], in series [3], the “Median Survival Time” value came to 17 days; the “clinical signs of toxicity” value is “scruffy coats and diarrhea”.

The values above are taken from patent US9101609B2, “CD37 immunotherapeutic and combination with bifunctional chemotherapeutic thereof” (EMERGENT PRODUCT DEVELOPMENT SEATTLE, LLC, priority 2008, dated 2015).
